The values that follow come from ChEMBL document CHEMBL4052601, “Glycybridins A-K, Bioactive Phenolic Compounds from Glycyrrhiza glabra” (J Nat Prod, 2017).

SMILES strings stand for the structures.

The target of assay [1] is T1, Tyrosine-protein phosphatase non-receptor type 1 (Homo sapiens, UniProt P18031).
T1 sequence (P18031 whole entry): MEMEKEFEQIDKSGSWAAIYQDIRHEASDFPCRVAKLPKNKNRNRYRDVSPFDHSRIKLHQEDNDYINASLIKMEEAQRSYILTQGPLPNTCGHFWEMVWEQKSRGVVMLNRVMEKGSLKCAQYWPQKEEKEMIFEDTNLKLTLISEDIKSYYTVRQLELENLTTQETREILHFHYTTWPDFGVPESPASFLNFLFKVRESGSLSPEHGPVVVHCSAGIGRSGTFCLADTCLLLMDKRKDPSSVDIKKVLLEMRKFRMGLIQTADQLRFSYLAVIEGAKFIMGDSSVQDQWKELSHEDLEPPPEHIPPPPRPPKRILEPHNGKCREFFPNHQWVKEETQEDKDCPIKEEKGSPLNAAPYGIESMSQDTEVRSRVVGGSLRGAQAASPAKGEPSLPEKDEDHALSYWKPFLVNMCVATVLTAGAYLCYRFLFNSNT
Nature of the assay: (§1) Inhibition of recombinant human PTP1B using pNPP as substrate after 30 mins.

For assay [2], the target named is T2, Tyrosine-protein phosphatase non-receptor type 1 (Homo sapiens) (UniProt P18031).
T2 sequence (whole entry): T1 sequence (P18031 whole entry)
The description is as §1.

The test system of another assay is A549. Nature of the assay: Antiproliferative activity against human A549 cells at 10 uM after 24 hrs by MTS assay relative to control. It counts as functional. The note with it: A549, 24 h. A general note: Tetrazolium assays rely on reduction of a dye to a coloured formazan, in cell work by metabolically active cells.
Another assay concerns MCF7. Nature of the assay: Antiproliferative activity against human MCF7 cells at 10 uM after 24 hrs by MTS assay relative to control. Type of assay: functional. Particulars: MCF7, 24 h.
A further assay deals with RAW264.7. Nature of the assay: Antiinflammatory activity against mouse RAW264.7 cells assessed as inhibition of LPS-induced nitric oxide production at 10 uM after 24 hrs by Griess assay relative to control. Type of assay: functional. The note with it: RAW264.7, 24 h.
A further assay relates to SW480. Nature of the assay: Antiproliferative activity against human SW480 cells at 10 uM after 24 hrs by MTS assay relative to control. It counts as functional. The note with it: SW480, 24 h.
A further assay deals with HepG2. Nature of the assay: Antiproliferative activity against human HepG2 cells at 10 uM after 24 hrs by MTS assay relative to control. It counts as functional. The note with it: HepG2, 24 h.
In assay [3] the target is T2, Tyrosine-protein phosphatase non-receptor type 1 (Homo sapiens). The note with it: at 10 µM.
Description: Inhibition of recombinant human PTP1B using pNPP as substrate at 10 uM after 30 mins relative to control
For a further assay, the system named is Homo sapiens. Nature of the assay: Inhibition of LPS-induced NF-kappaB (unknown origin) transactivation expressed in human SW480 cells at 10 uM administered 1 hr after LPS stimulation measured after 6 hrs by luciferase reporter gene assay relative to control. It counts as cell-based. On the technique in general: Reporter assays use an easily measured gene product as a stand-in for the process of interest.

Assay [4] deals with T3, Tyrosinase (Homo sapiens) (UniProt P14679).
T3 sequence (whole entry): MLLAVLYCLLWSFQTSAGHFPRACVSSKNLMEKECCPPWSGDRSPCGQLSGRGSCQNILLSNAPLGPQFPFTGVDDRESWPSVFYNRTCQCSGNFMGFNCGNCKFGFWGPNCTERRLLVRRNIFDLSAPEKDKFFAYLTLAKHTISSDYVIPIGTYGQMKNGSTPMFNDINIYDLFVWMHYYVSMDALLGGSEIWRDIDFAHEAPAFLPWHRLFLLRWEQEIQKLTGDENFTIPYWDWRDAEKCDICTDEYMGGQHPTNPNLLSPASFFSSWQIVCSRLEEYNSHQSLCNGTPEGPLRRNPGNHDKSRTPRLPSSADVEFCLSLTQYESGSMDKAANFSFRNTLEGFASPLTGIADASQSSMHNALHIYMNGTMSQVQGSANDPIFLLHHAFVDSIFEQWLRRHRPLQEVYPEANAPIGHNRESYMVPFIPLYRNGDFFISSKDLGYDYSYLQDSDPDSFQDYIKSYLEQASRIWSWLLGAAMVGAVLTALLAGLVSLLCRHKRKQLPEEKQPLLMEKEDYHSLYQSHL
Particulars: at 10 µM.
Description: Inhibition of tyrosinase (unknown origin) using L-tyrosine as substrate at 10 uM preincubated for 15 mins followed by substrate addition relative to control

A short description of assay [5]: Inhibition of LPS-induced NF-kappaB (unknown origin) transactivation expressed in human SW480 cells administered 1 hr after LPS stimulation measured after 6 hrs by luciferase reporter gene assay. Type of assay: cell-based.
For the next assay, the target named is T4, Tyrosinase (Homo sapiens, UniProt P14679).
T4 sequence (P14679 whole entry): T3 sequence (whole entry)
Nature of the assay: Inhibition of tyrosinase (unknown origin) using L-tyrosine as substrate preincubated for 15 mins followed by substrate addition.

As to `CC(C)=CCc1cc(/C=C/C(=O)c2ccc(O)c(CC=C(C)C)c2O)ccc1O` [KANZONOL C], the half-maximal inhibitory concentration (IC50) (as a rule, the concentration needed to halve the response being measured) in assay [1] is 5 to 7.9 µM. Besides, the inhibition (usually the percentage by which the read-out fell short of the control) in assay [2] was “Dose-dependent effect”; in assay [3], 75.8%; with Homo sapiens, 0%; in assay [4] it was 0%. Also, the inhibition at 10 µM in the assay on A549 amounted to 58%; in the assay with MCF7 it was 55.8%; in the assay on RAW264.7 it was 12.8%; in the assay on SW480, 35.6%; with HepG2, 31.7%.
In the case of `CC(C)=CCc1cc(/C=C/C(=O)c2ccc(O)cc2O)ccc1O` [LICOAGROCHALCONE A], the inhibition at 10 µM in the assay with A549 stood at 6.4%; with MCF7, 35.4%; in the assay with RAW264.7 it was 31.6%; with SW480, 18.3%; with HepG2, 33.9%. In assay [5], this compound yielded an IC50 of 6.2 µM. Also, the figures for the inhibition (in assay [3]; in the assay on Homo sapiens; in assay [4]) were 17.2%, 69% and 22.6%, respectively.
With `CC1(C)C=Cc2cc3cc(-c4ccc(O)cc4O)c(=O)oc3cc2O1`, the inhibition at 10 µM with A549 amounted to 0%; in the assay with MCF7, 24.5%; in the assay on RAW264.7, 21.2%; in the assay on SW480, 18.1%; in the assay with HepG2, 14.4%. Also, the inhibition stood at 56.9% in assay [3], 0% in the assay with Homo sapiens and 84% in assay [4]. The concentration for half-maximal inhibition (IC50) against Tyrosinase amounted to 2.8 µM.
`CC(C)=CCc1cc([C@@H]2CC(=O)c3ccc4c(c3O2)C=CC(C)(C)O4)ccc1O` [SHINFLAVANONE]: the IC50 in assay [1] was in the range of 5 to 7.9 µM. Also, the inhibition entry in assay [2] is “Dose-dependent effect”; in assay [3], 62.6%; in the assay on Homo sapiens it was 15.5%; in assay [4] it was 3.2%. In addition, the inhibition at 10 µM in the assay with A549 is 5.1%; in the assay with MCF7, 36.5%; with RAW264.7, 11.3%; with SW480 it was 25%; in the assay on HepG2 it was 16.9%.
Turning to `CC(C)=CCc1c(O)ccc2c1O[C@H](c1ccc3c(c1)C=CC(C)(C)O3)CC2=O`, the IC50 in [1] was in the range of 5 to 7.9 µM. Besides, the inhibition entry in assay [2] is “Dose-dependent effect”; in assay [3], 71%; with Homo sapiens, 44.7%; in assay [4], 3.1%. The inhibition at 10 µM in the assay with A549 was 0%; in the assay with MCF7 it was 71.2%; in the assay on RAW264.7 it was 0%; in the assay with SW480 it was 34.8%; in the assay on HepG2 it was 76.5%.
For the compound `CC(C)=CCc1cc([C@@H]2CC(=O)c3ccc(O)c(CC=C(C)C)c3O2)ccc1O` [GLABROL], the IC50 in assay [1] lay within 5 to 7.9 µM. Further, the inhibition result in [2] is “Dose-dependent effect”; in assay [3], 65.1%; in the assay on Homo sapiens, 28.2%; in assay [4], 2.3%. Moreover, the inhibition at 10 µM with A549 is 3.2%; with MCF7 it was 48%; in the assay with RAW264.7, 14.7%; with SW480, 13.6%; in the assay with HepG2, 51.3%.
Turning to `COc1ccc(C2COc3c(ccc(O)c3CC=C(C)C)C2=O)c(O)c1` (centres undefined), the inhibition at 10 µM in the assay with A549 was 9.4%; with MCF7 it was 8.7%; in the assay with RAW264.7, 18.1%; in the assay on SW480 it was 27.8%; in the assay on HepG2, 50.3%. Besides, the inhibition is 9.9% in assay [3], 0% in the assay with Homo sapiens and 68.3% in [4]. Further, on Tyrosinase, the IC50 was 5.1 µM.
With `CC1(C)C=Cc2cc(/C=C/C(=O)c3ccc(O)cc3O)ccc2O1`, the inhibition at 10 µM in the assay on A549 was 2.6%; with MCF7 it was 45.7%; in the assay with RAW264.7, 0%; in the assay with SW480 it was 7.9%; in the assay with HepG2, 11.1%. In assay [5], the midpoint of inhibition, the IC50, lay at 5.5 µM. Moreover, the inhibition in [3] came to 56.5%; in the assay with Homo sapiens, 60.7%; in assay [4], 4.4%.
Take `CC(C)=CCc1c(O)ccc([C@@H]2COc3c(ccc(O)c3CC=C(C)C)C2)c1O` [KANZONOL X]: the inhibition at 10 µM in the assay on A549 is 81.6%; in the assay with MCF7, 95.9%; in the assay on RAW264.7, 15.7%; in the assay on SW480, 74.4%; in the assay with HepG2, 14.9%. Also, the inhibition worked out at 15.7% in assay [3], 32.9% in the assay on Homo sapiens and 7.9% in [4].
For the compound `CC(C)=CCc1cc(/C=C/C(=O)c2ccc3c(c2O)C=CC(C)(C)O3)ccc1O`, the half-maximal inhibitory concentration (IC50) in assay [1] was in the range of 5 to 7.9 µM. Also, the inhibition entry was “Dose-dependent effect” in [2], 84.5% in [3], 3.4% in the assay on Homo sapiens and 0% in assay [4]. For the same compound, the inhibition at 10 µM stood at 2% in the assay on A549; 15.6% in the assay on MCF7; 7.2% in the assay on RAW264.7; 4.9% with SW480; 10.6% in the assay on HepG2.
On to `CC(C)=CCc1c(O)ccc([C@@H]2COc3c(ccc4c3C=CC(C)(C)O4)C2)c1O` [HISPAGLABRIDIN A], for which, in assay [1], the IC50 was 5 to 7.9 µM. Moreover, the inhibition result is “Dose-dependent effect” in assay [2], 80.3% in [3], 13.3% in the assay with Homo sapiens and 0% in [4]. Besides, the inhibition at 10 µM in the assay with A549 is 47.6%; with MCF7, 21.9%; in the assay on RAW264.7, 4%; in the assay with SW480 it was 34.9%; in the assay on HepG2, 26.7%.
With `O=C(/C=C/c1ccc(O)cc1)c1ccc(O)cc1O` [ISOLIQUIRITIGENIN], the inhibition at 10 µM in the assay on A549 stood at 8.3%; with MCF7, 65.6%; with RAW264.7 it was 21%; with SW480, 29.1%; with HepG2 it was 6.5%. In addition, the inhibition in [3] was determined as 14.2%; in the assay with Homo sapiens it was 17.1%; in assay [4] it was 15.3%.
In the case of `CC1(C)C=Cc2c(ccc3c2OCc2c-3oc3cc(O)ccc23)O1`, the inhibition at 10 µM in the assay with A549 came to 0%; in the assay on MCF7, 33.7%; with RAW264.7 it was 7.4%; with SW480, 1.1%; with HepG2, 0%. The inhibition in [3] was determined as 18.1%; in the assay on Homo sapiens it was 1.4%; in assay [4], 26.3%.
For the compound `COc1ccc([C@@H]2COc3c(ccc4c3C=CC(C)(C)O4)C2)c(O)c1`, the inhibition at 10 µM in the assay with A549 came to 35.9%; in the assay on MCF7, 5.3%; in the assay on RAW264.7, 8.5%; in the assay on SW480, 16.1%; in the assay with HepG2, 54.2%. For the same compound, the inhibition in assay [3] turned out to be 14.6%; in the assay on Homo sapiens it was 4.1%; in assay [4], 2.2%.
Turning to `CC(C)=CCc1c(O)cc(O)c2c(=O)c(-c3ccc(O)cc3O)coc12`, the inhibition at 10 µM in the assay on A549 came out at 4.2%; in the assay on MCF7, 7.4%; in the assay on RAW264.7, 10.3%; with SW480 it was 4.2%; in the assay on HepG2, 0%. Moreover, the inhibition came to 18.2% in assay [3], 0% in the assay with Homo sapiens and 49.6% in assay [4].
Turning to `CC1(C)C=Cc2cc([C@@H]3CC(=O)c4ccc(O)cc4O3)ccc2O1` [ABYSSINONE I], the inhibition at 10 µM with A549 was found to be 0%; with MCF7, 13.8%; with RAW264.7, 0%; in the assay with SW480, 17.4%; in the assay on HepG2, 33.9%. For the same compound, the inhibition in assay [3] was determined as 10.1%; in the assay on Homo sapiens, 23.1%; in assay [4], 2.9%.
